Test results as given in patent publication US5559132A, “Carboxamide derivatives for treating asthma” (Zeneca Limited, priority 1993, dated 1996).

Biological target: T1, guinea pig trachea (NKA or [β-ala8]-NKA(4-10) as agonist) (Cavia porcellus, UniProt Q64077)
T1 construct: The trachea are removed, trimmed of excess tissue and divided into two segments; from tissue; host or cells: guinea pig trachea rings (male animals)
T1 sequence (Q64077 1-402): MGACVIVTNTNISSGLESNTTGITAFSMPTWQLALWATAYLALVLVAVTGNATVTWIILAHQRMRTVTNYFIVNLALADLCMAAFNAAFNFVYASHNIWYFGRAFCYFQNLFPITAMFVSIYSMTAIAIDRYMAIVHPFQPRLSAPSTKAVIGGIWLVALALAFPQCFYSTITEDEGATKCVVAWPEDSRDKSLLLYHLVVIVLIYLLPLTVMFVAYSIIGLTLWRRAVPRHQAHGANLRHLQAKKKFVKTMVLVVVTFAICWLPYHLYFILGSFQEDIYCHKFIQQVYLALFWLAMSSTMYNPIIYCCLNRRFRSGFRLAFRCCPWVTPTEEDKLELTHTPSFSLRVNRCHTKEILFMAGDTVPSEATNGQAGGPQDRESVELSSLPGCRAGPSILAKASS
Experiment: Guinea Pig Assay (Test B): antagonism of NKA or [β-ala8]-NKA(4-10) contraction in guinea pig trachea
Conditions: -log molar KB
Description: In the test described below either NKA or [β-ala^8 ]-NKA(4-10) is used as an agonist. The chosen agonist is refered to as AG throughout the description.
Male guinea pigs are killed by a sharp blow to the back of the head. The trachea are removed, trimmed of excess tissue and divided into two segments. […] Initial tension placed on each tissue is 1 g, which is maintained throughout a 0.5 to 1.5 hour equilibration period before addition of other drugs. Contractile responses are measured on a Grass polygraph via Grass FT-03 force transducers.
Tissues are challenged repetitively with a single concentration of AG (10 nM) with intervening 30 min periods with washing to allow the tension to return to baseline levels. […] Percent inhibition is determined when a Compound produces a statistically significant (p<0.05) reduction of the contraction and is calculated using the second contractile response as 100%.
Potencies of selected Compounds are evaluated by calculating apparent dissociation constants (KB) for each concentration tested using the standard equation: […]
where dose ratio=antilog[(AG -log molar EC50 without Compound)--(AG -log molar EC50 with Compound)]. The KB values may be converted to the negative logarithms and expressed as -log molar KB (i.e. pKB). […] The EC50 values are converted to the negative logarithms and expressed as -log molar EC50. […]

CC(=O)N(C1CCCCC1)C1CCN(CCC(CN(C)C(=O)c2ccccc2)c2ccc(Cl)c(Cl)c2)CC1 (stereo not shown) [Example 4, N-[4-[4-(N-Cyclohexylacetamido)piperidino]-2-(3,4-dichlorophenyl)butyl]-N-methylbenzamide]
Kb: 0.02 µM
